Consider 1 molecule from patent publication US11883398B2, “Dipeptidylpeptidase 4 inhibition enhances lymphocyte trafficking, improving both naturally occurring tumor immunity and immunotherapy” (INSTITUT PASTEUR, priority 2015, dated 2024).

“Also recorded” adds a separate entry of the source.

The subject of one assay is CT26 colon carcinoma. Nature of the assay: Subcutaneous CT26 colon carcinoma tumor growth in vivo. More on the design: species or system mouse. Here is the method: Mice used were 7-12 weeks old. […] B16F10 and […] (Ovalbumin-expressing B16F10 cells, gift from C. Reis e Sousa) tumor cells were cultured in DMEM (Gibco) supplemented with 10% FCS (PAA), 0.1 mM non-essential amino acids, 1 mM sodium pyruvate, 10 mM Hepes, 70 μM beta-mercaptoethanol and 23 μg/ml gentamycin (all from Gibco). CT26 colon carcinoma cells were cultured in RPMI (Gibco) supplemented as described for DMEM. Cells for injections were passaged 1-2 times after thawing, before use. WT and genetically modified mice were subcutaneously injected with 2×10^5 B16 or 5×10^5 CT26 cells in the shaved right flank. […] For blocking of chemokine and chemokine receptors, WT mice were intraperitoneally injected with 100 μg of hamster a-mCXCR3 (clone CXCR3-173, BioLegend), 100 μg of hamster α-mCCR5 (clone HM-CCR5, BioLegend), 50 μg of rat anti-mCXCL10 (clone 134013, R&D systems) and 20 μg of rat-α-mCXCR4 (clone 2B11/CXCR4, BD Biosciences) or with respective isotype antibodies (hamster IgG (clone HTK888, BioLegend, used as control for mCXCR3 and mCCR5 blockage); rat IgG2a (clone 54447, R&D systems, used as control for mCXCL10 blockade) and rat IgG2b (clone A95-1, BD Biosciences, used as control for mCXCR4 blockade). […] Tumor height and width were measured with a caliper and tumor volume was calculated (Elliptical volume=width^2×height×0.523). […]

A further assay deals with mCXCL10. The following applies: sitagliptin vs control. How it is done: Plates were washed twice with 300 μL of PBS. Blocking was done with BSA 1% (proteinase free, Gibco), in PBS for 2h at room temperature. Plates were washed 3 times with 300 μL of 0.05% Tween-20 in PBS. Tumor and plasma samples were diluted in BSA 1% and incubated for 2h, at room temperature. To obtain a standard curve, and to control for the cross-reactivity of the detection antibody, dilutions of recombinant mCXCL10 (Peprotech) or DPP4-digested mCXCL10(3-77) were incubated in parallel. For detection of mCXCL10(1-77), biotinylated α-mCXCL10(1-77) (AbDSerotec, 0.5 μg/ml, clone AbD17185.1), Streptavidin-HRP (BD Biosciences) and 1-STEP ULTRA TMB (Thermo Scientific) were used.
Enzymatic reactions were stopped with HCL 1N and plates were read with 450 nm in a Lab-systems […] MS (Thermo) reader. […] Detection of mDPP4, mCCL22 and mCXCL12 was done with the DUOSET® ELISA kit (R&D). Detection of mVEGF, mCCL2 and mCCL3 was done with a multiplex kit (Invitrogen).

In a further assay the test system is CXCR3-expressing T cells. Nature of the assay: Model of trafficking into the peritoneal cavity. The assay is classed as in vivo, mouse. Here is the method:
(§1) WT and Dpp4^−/− mice were intraperitoneally injected with PBS or 1 μg of mCXCL10, mCXCL9 or mCCL5 (all from Peprotech). At the indicated time points, mice were sacrificed and peritoneal cells were collected in 10 mL of PBS. For thioglycollate induced peritonitis mice were intraperitoneally injected with thioglycollate 3% weight/volume, 24 hours before collection of peritoneal cells.
Fluorochrome-conjugated anti-mouse CD3 (clone145-2C11), CD8 (clone 53-6.7), CD4 (clone RM4-5), NK1.1 (clone PK136), CD49b (clone DX5), CD25 (clone PC61), B220 (clone RA3-6B2), Ly6G (clone 1A8), Ly6C (clone AL-21), CD11 b (clone M1/70) Siglec-F (clone E50-2440), MHCII IA-IE (clone M5/114.15.2), CD45.2 (clones 56-0454-82 and 109830), Thy-1.1 (clone HIS51), Thy-1.2 (clone 53-2.1), DPP4 (clone H194-112) and CXCR3 (clone CXCR3-173) were from eBiosciences and BD Biosciences. Fluorochrome conjugated anti-F4/80 (clone CI:A3-1) was from AbDserotec. For exclusion of dead cells, Live/Dead fixable Aqua reagent (Invitrogen) was used. For all staining protocols, cell suspensions were incubated with mouse CD16/CD32 Fc Blocking antibodies (BD Biosciences) prior to antibody. For analysis of peritoneal cavity infiltrates, cells were washed and incubated with a cocktail of fluorochrome-conjugated antibodies. For analysis of tumor infiltrates, B16F10 tumors were collected at the indicated time points and digested in PBS supplemented with 2.7 mg/ml of Collagenase (Roche) and 23U/ml of Deoxyribonuclease I (Invitrogen) for 30 min, 37° C. Digestion was terminated by adding PBS supplemented with 2% FCS and 5 mM EDTA (Gibco). Tumor cell suspensions were obtained after filtration over a 70 μm cell strainer. For determination of cell numbers, the […] COUNTING BEADS reagent (Invitrogen) was used. Flow cytometry was performed using a BD LSRFORTESSA or a BD CANTO cytometer, with DIVA software. Computer analysis was done with FLOWJO (Treestar).

A short description of assay [1]: Thioglycollate induced peritonitis. The assay is classed as in vivo, mouse. The conditions noted are these: 24 h after intraperitoneal thioglycollate, sitagliptin vs control. How it is done:
as §1

Take `N[C@@H](CC(=O)N1CCn2c(nnc2C(F)(F)F)C1)Cc1cc(F)c(F)cc1F` [sitagliptin]: in the assay on CT26 colon carcinoma (BALB/c mice, sitagliptin vs control chow), the CT26 tumor growth entry is reported as “marked delay of CT26 tumor growth; also recorded: delayed CT26 growth”. Further, in the assay on CT26 colon carcinoma (anti-CXCR3 antibody, sitagliptin vs control), the “CT26 tumor growth with CXCR3 blocking antibodies” value is on record as “loss of protection”. For the same molecule, the “quantity of plasma mCCL2” value in the assay with mCXCL10 (CpG-A intravenously) is “higher”. In addition, the “CpG-A-induced plasma total CXCL10” value in the assay on mCXCL10 (WT mice, 5 μg CpG-A intravenously) was “stabilization of CpG-A-induced plasma CXCL10”. Besides, the “quantity of plasma mCXCL10(1-77)” value in the assay on mCXCL10 (WT mice, CpG-A intravenously) is “significantly higher”. Also, the “recruitment of polymorphonuclear cells into the peritoneal cavity” value in the assay on CXCR3-expressing T cells (after intraperitoneal mCXCL10, control or sitagliptin-fed mice) is recorded as “did not show differential recruitment”. Moreover, the “CXCR3 expression on peripheral blood T cells” value in the assay on CXCR3-expressing T cells (after intraperitoneal mCXCL10, sitagliptin vs control) is given as “unaltered CXCR3 expression”. Also, in the assay with CXCR3-expressing T cells (intraperitoneal mCXCL10, sitagliptin vs control chow), the “mCXCL10-mediated infiltration of T cells into the peritoneal cavity” value was “enhanced mCXCL10-mediated infiltration of T cells”. For the same molecule, the “CXCR3 plasma membrane expression on migrating T cells” value in the assay on CXCR3-expressing T cells (peritoneal cavity after mCXCL10 injection, sitagliptin vs control) is given as “lower”. Also, the “thioglycollate-induced neutrophil, monocyte and eosinophil migration” value in assay [1] is “no differences were observed”.
